Laboratory results published in patent publication US5432018A, “Peptide library and screening systems” (Affymax Technologies N.V., priority 1991, dated 1995).

system: 3E7 Fab; assay: Dissociation of [125I]Fab from fusion phage clones; format: binding, mouse; set-up: key to Dissociation t1/2 (minutes): **: indicates that initial binding was not detected; conditions: [125I]Fab dissociating from the phage clone bearing the peptide; 4° C; excess free YGGFL added
Method: An assay employing the anti-phage antisera was developed to determine the rate of dissociation of [^125 I]Fab from individual phage isolates. Individual fusion phase isolates were amplified in a 5 ml liquid culture of E. coli K91 cells and phage particles were isolated and quantitated as described above. In 1 ml microtiter minitubes, 25 μl of TBS containing approximately 2×10^9 infectious phage particles were incubated with […] of TBS/0.1% BSA containing 40,000 cpm of [^125 I]Fab for 10 minutes. Anti-phage antisera (25 μl of 1:1000 dilution in PBS/0.1%BSA) and staph A particles coated with goat anti-mouse IgG (25 μl of Tachisorb diluted eight-fold in TBS/0.1% BSA) were then added. Dissociation was initiated after 2 hours further incubation at 4° C. […] Filter bound radioactivity was determined by gamma counting. […] The time corresponding to a 50% reduction of initially bound [^125 I]Fab was determined by linear regression of a semi-logarithmic plot of amount bound vs. time.

**Q.** “YGVFSR: hexapeptide isolated with 50 pM Fab” was tested. Which “Dissociation t1/2” value did it give?
**A.** Its value is 2.8 min.

**Q.** “YGSFMA: hexapeptide isolated with 50 pM Fab” was tested. Which “Dissociation t1/2 (minutes)” value did it give?
**A.** Its value is “**”.

**Q.** For “YGYWSL: hexapeptide isolated with 50 pM Fab”, which “Dissociation t1/2” value is on record?
**A.** The value was 15.6 min.

**Q.** Which “Dissociation t1/2” value does the source give for “YGAFFQ: hexapeptide isolated with 50 pM Fab” here?
**A.** Its value is 13.4 min.

**Q.** With “YGFWSN: hexapeptide isolated with 50 pM Fab” as the substance, how does the “Dissociation t1/2” value read?
**A.** Its value is 7.4 min.

**Q.** How did the “Dissociation t1/2 (minutes)” value turn out when “YGRFFH: hexapeptide isolated with 50 pM Fab” was run?
**A.** The value was “**”.

**Q.** For “YGAFGG: hexapeptide isolated with 50 pM Fab”, which “Dissociation t1/2” value is on record?
**A.** Its value is 5.0 min.

**Q.** With “YGGFSP: hexapeptide isolated with 50 pM Fab” as the substance, how does the “Dissociation t1/2 (minutes)” value read?
**A.** Its value is “**”.

**Q.** How did the “Dissociation t1/2 (minutes)” value turn out when “YGGLRH: hexapeptide isolated with 50 pM Fab” was run?
**A.** The value was “**”.

**Q.** How did the “Dissociation t1/2” value turn out when “YGSFSL: hexapeptide isolated with 50 pM Fab” was run?
**A.** The value was 0.43 min.

**Q.** With “YGGFLT: hexapeptide isolated with 50 pM Fab” as the substance, how does the “Dissociation t1/2” value read?
**A.** The value was 17.9 min.

**Q.** How did the “Dissociation t1/2” value turn out when “YGGLSM: hexapeptide isolated with 50 pM Fab” was run?
**A.** Its value is 0.96 min.

**Q.** With “YGGLVR: hexapeptide isolated with 50 pM Fab” as the substance, how does the “Dissociation t1/2” value read?
**A.** The value was 0.50 min.
